Measured values reported in patent US20110230407A1, “HEPATOCYTE GROWTH FACTOR PATHWAY ACTIVATORS IN DEMYELINATING DISEASES AND CENTRAL NERVOUS SYSTEM TRAUMA” (priority 2005, published 2011).

Tests used:
Assay type in all cases: cell-based
[1] = test system: Schwann cells; experiment: H2O2-induced apoptosis of Schwann cells (Apo-ONE Assay kit); conditions: 0.5 mM H2O2 for 2 hours; HGF 50 ng/ml, mimetic 10 micromolar; FIG. 1
Procedure: HGF and small molecule HGF/SF mimetic protect Schwann cells against H2O2-induced apoptosis. Schwann cells were seeded in 96 well plates at a density of 5000 cells/well, overnight in serum-free media. Cells were treated with 0.5 mM H2O2 for 2 hours in the presence of vehicle (Veh), HGF (50 ng/ml) or HGF/SF mimetic (10 micromolar). Cells were assayed for apoptosis using the Apo-ONE Assay kit (Promega).

[2] = test system: Schwann cells; experiment: Myelin production by fluoromyelin staining, Schwann cells; conditions: 4 hours
Procedure: HGF/SF and small molecule HGF/SF mimetic increase myelin production in Schwann cells. It is well-known that the primary function of oligodendrocytes and Schwann cells is myelin production. […] Cells were seeded in 3 well chamber slides at a density of 50,000 cells/well in serum free media for 24 hours. Then HGF/SF (50 ng/ml) or a small molecule HGF/SF mimetic (5 μM) were added to the same medium and cells incubated for an additional 4 hours. Cells were washed, and fluoromyelin (Molecular Probes) was added to each well (30 min exposure at room temperature), and cells observed under a confocal microscope (Olympus). […] To obtain semi-quantitative measurements of this increase in the fluoromyelin signal, a second experiment was performed. Schwann cells were seeded in 6 well plates at a density of 4×10^5 cells/well and treated with HGF (50 ng/ml) or mimetic (5 uM) for 4 hours. Fluoromyelin staining was performed as described above and relative fluorescence was measured using a fluorescence plate reader.

[3] = test system: oligodendrocytes; experiment: Myelin production by fluoromyelin staining, oligodendrocytes; conditions: HGF/SF 50 ng/ml, mimetic 5 μM, 4 hours
[4] = test system: rat RSC96 Schwann cells; experiment: Schwann cell proliferation, [3H]-thymidine incorporation; conditions: treated 16-24 hours, serum-free; FIGS. 3A and 3B
Description: (§1) Small molecule HGF/SF agonist mimics HGF/SF's pro-proliferative effects. Oligodendrocytes and Schwann cells are both cells that support neuronal function by ensheathing neuronal axons with myelin. An individual supporting cell comprises a single segment of an axon's myelin sheath and is active in facilitating axonal growth. An important aspect of HGF/SF activity is this growth factor's ability to induce oligodendrocyte and Schwann cell proliferation. In order to evaluate small molecule HGF/SF mimetics for potential HGF/SF-like bioactivity, rat RSC96 Schwann cells (ATCC, Manassas, Va.) or mouse primary oligodendrocytes (Celprogen, San Pedro, Calif.) were seeded in 96-well plates at 5000 cells/well in serum-free medium for 16 hours. Cells were treated with test compound or HGF/SF (positive control) for 16-24 hours. [^3H]-thymidine was added to the medium with Schwann cells, WST1 cell proliferation reagent (Roche, Indianapolis, Ind.) was added to oligodendrocytes, and incubation was continued for another 4-5 hours. Schwann cells were washed with PBS and harvested. [^3H]-thymidine incorporation was determined and used as a measure of proliferation (increased DNA synthesis). Cells with WST1 reagent were read using a plate reader at an OD of 490 nm.

[5] = test system: mouse primary oligodendrocytes; experiment: Oligodendrocyte proliferation, WST1 reagent; conditions: treated 16-24 hours, serum-free; FIGS. 3C and 3D
Description: as §1

[6] = test system: fibroblasts lacking the Met receptor; experiment: Mitogenesis in fibroblasts lacking the Met receptor
Procedure: To determine whether mimetic-mediated Met phosphorylation induces similar intracellular signaling cascades as HGF/SF, and to assess whether these signaling events convey biologic activity, experiments were carried out using an Akt inhibitor and the phosphoinositide3-kinase inhibitor Wortmannin.

[7] = test system: smooth muscle cells; experiment: Mitogenesis in smooth muscle cells lacking the Met receptor
[8] = test system: Human neurons; experiment: Neuronal axon growth and cell density in human neurons; conditions: 48 hours, FIG. 5
Procedure: In this experiment, the ability of HGF/SF and mimetic to activate axonal growth was assessed. Human neurons (ATCC) were seeded in 6-well plates (1000 cell/well) in media containing 1% FBS. Cells were treated with HGF/SF (50 ng/ml) or mimetic (5 micromolar) for 48 hours. […] Cell shape, size, and density are clearly different in the presence of HGF/SF and mimetic compared with control. […] In one experiment, neurons were incubated with conditioned media from Schwann cells (FIG. 5, right field). […] Thus, secreted growth factors present in Schwann cell media are ineffective (or are at least effects are below the level of detection) as cell mitogens.

[9] = test system: NGF, BDNF, and NT-4; experiment: Expression of neurotrophic growth factors in Schwann cells, Western blot; conditions: Schwann cell protein extracts; FIG. 6
Description: HGF/SF- and HGF/SF mimetic-activated Schwann cells show increased expression of neurotrophic growth factors.

[10] = test system: Schwann cells; experiment: Schwann cell migration, Migration Chamber; conditions: 22 hours, quantified with Calcein; FIG. 7
Procedure: HGF/SF mimetic recapitulates HGF/SF activity in Schwann cells. To compare the direct effects of HGF/SF mimetic and HGF/SF on cell migration, an in vitro migration assay was employed using a Migration Chamber (BD Biosciences). 50,000 cells were seeded in the inner chamber for 22 hours in the presence of 0.4% or 10% FBS, HGF/SF, or mimetic. Cell number was quantified with […] Calcein using a fluorescence plate reader.

Substance: HGF/SF: Scatter factor / hepatocyte growth factor, pleiotropic growth factor, heparin binding heterodimeric protein signalling through Met
- cell viability after H2O2 [1]: substantial improvement in cell viability
- increase in the fluoromyelin signal, relative fluorescence by plate reader ([2]; HGF 50 ng/ml, mimetic 5 uM, FIG. 2B): 3 fold
- fluoromyelin signal, confocal microscope ([2]; HGF/SF 50 ng/ml, mimetic 5 μM, FIG. 2A): intense increase
- myelin production in oligodendrocytes [3]: induce myelin production
- Schwann cell proliferation ([3H]-thymidine incorporation) [4]: activate
- oligodendrocyte proliferation (WST1, OD 490 nm) [5]: activate
- mitogenesis in fibroblasts lacking the Met receptor [6]: neither the mimetic nor HGF/SF activated mitogenesis
- mitogenesis in smooth muscle cells, which also lack the Met receptor [7]: A similar result was obtained
- neuronal cell proliferation / cell density [8]: activate neuronal cell proliferation
- neuronal axon growth ([8]; HGF/SF 50 ng/ml, mimetic 5 micromolar, 1% FBS): activate neuronal axon growth
- expression of NGF, BDNF, and NT-4 cytokines [9]: over-express
- Schwann cell migration [10]: similarly increase Schwann cell migration
